From US11807625B2, “Capsid inhibitors for the prevention of HIV” (Gilead Sciences, Inc., priority 2019, dated 2023)
Like-named read-outs stand apart in the source and are kept apart here.

Assay: PK of compound of Formula (Ia) after single subcutaneous dose of solution formulations in beagle dogs
Format: in vivo
Details: male, beagle, dog, plasma, sc; for AUC(0-t): 6 mg/kg, mean ± SD, SC 6 mg/kg, solution V, 300 mg/mL
Procedure: Formulations containing the compound of Formula (Ia), or a pharmaceutically acceptable salt thereof, were prepared as solutions and optionally administered subcutaneously or intramuscularly to rats, rabbits, and/or dogs.
(§1) A solution of about 400 mg/mL of the compound of Formula (Ia) having 17.00 w/w % water, 36.40 w/w % PEG 300, 35.20 w/w % of a sodium salt of a compound of Formula (Ia), 5.00 w/w % ethanol, and 6.40 w/w % poloxamer 188 was prepared. The solution was administered subcutaneously to male beagle dogs at a dose level of about 12 mg/kg and male Wistar Han rats at a dose level of about 50 mg/kg. The pharmacokinetic profiles were determined, and the results for dogs are summarized in Table and Table, while the results for rats are summarized in Table and Table below.
as §1, with “500” for “400”, “14.06” for “17.00”, “30.12” for “36.40”
A solution of about 300 mg/mL of the compound of Formula (Ia) having 23.33 w/w % water, 48.99 w/w % PEG 300, 26.47 w/w % of a sodium salt of a compound of Formula (Ia), and 1.21 w/w % poloxamer 188 was prepared. The solution was administered subcutaneously to male beagle dogs at a dose level of about 6 mg/kg and male Wistar Han rats at a dose level of about 50 mg/kg. The pharmacokinetic profiles were determined, and the results for dogs are summarized in Table and Table, while the results for rats are summarized in Table and Table below.
as §1, with “18.80” for “17.00”, “40.25” for “36.40”, “34.38” for “35.20”, “1.57” for “6.40”
as §1, with “500” for “400”, “16.29” for “17.00”, “34.88” for “36.40”, “41.92” for “35.20”, “1.91” for “6.40”
as §1, with “20.90” for “17.00”, “44.72” for “36.40”, “and 34.38” for “35.20”, “(Ia)” for “(Ia), 5.00 w/w % ethanol, and 6.40 w/w % poloxamer 188”
A solution of about 400 mg/mL of the compound of Formula (Ia) having 19.90 w/w % water, 42.59 w/w % PEG 300, 34.38 w/w % of a sodium salt of a compound of Formula (Ia), and 3.13 w/w % poloxamer 188 was prepared. The solution was administered subcutaneously to male beagle dogs at a dose level of about 12 mg/kg and male Wistar Han rats at a dose level of about 50 mg/kg. […]

[1] = 12 mg/kg, mean, n = 3 dogs, SC 12 mg/kg, solution T, 400 mg/mL
[2] = 12 mg/kg, mean, n = 3 dogs, SC 12 mg/kg, solution U, 500 mg/mL
[3] = 12 mg/kg, individual dogs, SC 12 mg/kg, solution T, 400 mg/mL
[4] = 12 mg/kg, individual dogs, SC 12 mg/kg, solution U, 500 mg/mL
[5] = 12 mg/kg, beagle dogs, SC 12 mg/kg, 400 mg/mL solution AA (6.25% poloxamer 188), Mean n = 3
[6] = 12 mg/kg, beagle dogs, SC 12 mg/kg, 400 mg/mL solution AA (6.25% poloxamer 188), animals #1-#3
[7] = 12 mg/kg, beagle dogs, SC 12 mg/kg, 400 mg/mL solution W (5.00% ethanol, 1.57% poloxamer 188), Mean n = 3
[8] = 12 mg/kg, beagle dogs, SC 12 mg/kg, 400 mg/mL solution W (5.00% ethanol, 1.57% poloxamer 188), animals #1-#3

AUC(0-t) (n = 3 dogs, read-out: AUC0-2016 h): 107 ± 12 µM·h | AUC(0-t) (n = 3 dogs, read-out: AUC0-2253 h): 109 ± 12 µM·h | AUC(0-t) (n = 3 dogs, read-out: AUC0-2688 h): 110 ± 12 µM·h | AUC(0-t) (n = 3 dogs, read-out: AUC0-3024 h): 111 ± 13 µM·h | AUC(0-t) (n = 3 dogs, read-out: AUC0-4032 h): 112 ± 13 µM·h | AUC(0-t) (n = 3 dogs, read-out: AUC0-4368 h): 112 ± 13 µM·h | concentration at 1 h [1]: 6.07 nM | concentration at 1 h [2]: 5.59 nM | concentration at 3 h [1]: 18.1 nM | concentration at 3 h [2]: 22 nM | concentration at 8 h [3]: 83.9 nM | concentration at 8 h [1]: 72.9 nM | concentration at 8 h [2]: 61.2 nM | concentration at 24 h [3]: 233 nM | concentration at 24 h [1]: 224 nM | concentration at 24 h [2]: 134 nM | concentration at 48 h [4]: 72.8 nM | concentration at 48 h [1]: 241 nM | concentration at 48 h [2]: 87.2 nM | concentration at 72 h [4]: 49.4 nM | concentration at 72 h [1]: 223 nM | concentration at 72 h [2]: 58.6 nM | concentration at 96 h [4]: 49 nM | concentration at 96 h [1]: 232 nM | concentration at 96 h [2]: 52.4 nM | concentration at 168 h [1]: 221 nM | concentration at 168 h [2]: 97.5 nM | concentration at 336 h [3]: 179 nM | concentration at 336 h [4]: 114 nM | concentration at 336 h [1]: 261 nM | concentration at 336 h [2]: 152 nM | concentration at 504 h [3]: 286 nM | concentration at 504 h [4]: 151 nM | concentration at 504 h [1]: 238 nM | concentration at 504 h [2]: 149 nM | concentration at 672 h [3]: 150 nM | concentration at 672 h [1]: 116 nM | concentration at 672 h [2]: 81.9 nM | concentration at 840 h [1]: 90.8 nM | concentration at 840 h [2]: 72.6 nM | concentration at 1008 h [3]: 75.5 nM | concentration at 1008 h [1]: 73.6 nM | concentration at 1008 h [2]: 58.3 nM | concentration at 1344 h [3]: 42.5 nM | concentration at 1344 h [4]: 43.3 nM | concentration at 1344 h [1]: 36.2 nM | concentration at 1344 h [2]: 34.8 nM | concentration at 1680 h [3]: 19.9 nM | concentration at 1680 h [1]: 23.9 nM | concentration at 1680 h [2]: 21.3 nM | concentration at 2016 h [1]: 11.8 nM | concentration at 2016 h [2]: 10.3 nM | concentration at 2352 h [3]: 4.8 nM | concentration at 2352 h [1]: 6 nM | concentration at 2352 h [2]: 7.5 nM | concentration at 1 h [5]: 4 nM | concentration at 3 h [5]: 13.8 nM | concentration at 8 h [5]: 42.3 nM | concentration at 24 h [5]: 134 nM | concentration at 24 h [6]: 118 nM | concentration at 48 h [5]: 148 nM | concentration at 48 h [6]: 102 nM | concentration at 72 h [5]: 135 nM | concentration at 96 h [5]: 180 nM | concentration at 96 h [6]: 140 nM | concentration at 168 h [5]: 101 nM | concentration at 168 h [6]: 106 nM | concentration at 336 h [5]: 185 nM | concentration at 336 h [6]: 204 nM | concentration at 504 h [5]: 182 nM | concentration at 672 h [5]: 183 nM | concentration at 672 h [6]: 157 nM | concentration at 840 h [5]: 109 nM | concentration at 840 h [6]: 103 nM | concentration at 1008 h [5]: 85.4 nM | concentration at 1008 h [6]: 77.6 nM | concentration at 1334 h [5]: 47.6 nM | concentration at 1334 h [6]: 35.8 nM | concentration at 1680 h [5]: 28 nM | concentration at 1680 h [6]: 24 nM | concentration at 2016 h [5]: 15.4 nM | concentration at 2016 h [6]: 10.2 nM | concentration at 2352 h [5]: 10.5 nM | concentration at 2688 h (12 mg/kg, beagle dogs, SC 12 mg/kg, 400 mg/mL solution AA (6.25% poloxamer 188), 2688 h, Mean n = 3): 5.47 nM | concentration at 3024 h (12 mg/kg, beagle dogs, SC 12 mg/kg, 400 mg/mL solution AA (6.25% poloxamer 188), 3024 h, Mean n = 3): 3.54 nM | concentration at 3360 h (12 mg/kg, beagle dogs, SC 12 mg/kg, 400 mg/mL solution AA (6.25% poloxamer 188), 3360 h, Mean n = 3): 1.97 nM | concentration at 3696 h (12 mg/kg, beagle dogs, SC 12 mg/kg, 400 mg/mL solution AA (6.25% poloxamer 188), Mean): 1.56 nM | concentration at 3696 h [6]: 1.63 nM | concentration at 3 h [7]: 3.84 nM | concentration at 3 h [8]: 3.45 nM | concentration at 8 h [7]: 18 nM | concentration at 24 h [7]: 37.8 nM | concentration at 24 h [8]: 35.4 nM | concentration at 48 h [7]: 48.2 nM | concentration at 72 h [7]: 48.6 nM
Compound: CC(C)(C#Cc1ccc(-c2ccc(Cl)c3c(NS(C)(=O)=O)nn(CC(F)(F)F)c23)c([C@H](Cc2cc(F)cc(F)c2)NC(=O)Cn2nc(C(F)(F)F)c3c2C(F)(F)[C@@H]2C[C@H]32)n1)S(C)(=O)=O [compound of Formula (Ia)]
